Tests used:
[1] = tested on: Candida parapsilosis and spores of Aspergillus niger; experiment: summary of tests with Candida parapsilosis and spores of Aspergillus niger; assay type: cell-based; parameters: key to synergistic effect in mixtures: + = low but significant; ++ = good; +++ = very good; settings: for concentration without sufficient antimicrobial activity: conventional plant protection agent alone; for synergistic effect in mixtures: plant protection agent in mixtures (M1-M7, Table 2)
Description: (§1) A specific in vitro test system was designed with certified tester strains from Candida parapsilosis (DSM 70125) and spores from Aspergillus niger (DSM 1957) to define antimicrobial activities and synergistic effects. In all experiments freshly grown cultures of the listed microorganisms were adjusted to a cell number of about 10^5 in a 200 μl volume of the test solutions. Test solutions are in general: a) sterile water (H2O) as a negative control, b) conventional plant protection agent alone c) specific mixtures of essential oils, detergents, metal ions and organic acids, d) a plant protection composition according to the invention.
(§2) After a residence time of 15 min. (Candida parapsilosis) or 60 min. (Aspergillus niger) at room temperature the 200 μl samples containing the microorganisms and the test solutions were diluted and were plated in dilutions of 0, 10^−1 and 10^−2 with aliquots of 10 μl each onto growth media. After an incubation period of 2-5 days at 30° C. the grown colonies were determined and documented by digital photography.

[2] = tested on: Candida parapsilosis (DSM 70125); experiment: in vitro test of antimicrobial activity and synergistic effects on suspension cultures of Candida parapsilosis; assay type: cell-based; settings: FIG. 4; for antimicrobial activities against Candida parapsilosis: agent alone at three concentrations (0.05%, 0.025%, 0.01%); for synergistic effect against Candida parapsilosis: in combination with mixture M1, all three concentrations (0.05%, 0.025%, 0.01%)
Description: as §1, §2

CCNC(=O)NC(=O)/C(C#N)=N/OC [F3, Curzate]
concentration without sufficient antimicrobial activity [1]: 0.01%
synergistic effect in mixtures [1]: +++
antimicrobial activities against Candida parapsilosis [2]: do not show sufficient antimicrobial activities
synergistic effect against Candida parapsilosis [2]: show synergistic effects

Mancozeb [F4]
concentration without sufficient antimicrobial activity [1]: 0.05%
synergistic effect in mixtures [1]: +++
antimicrobial activities against Candida parapsilosis [2]: do not show sufficient antimicrobial activities
synergistic effect against Candida parapsilosis [2]: show synergistic effects

[Cl-].[Cu+2].[Cu+2].[OH-].[OH-].[OH-] [F7, Copperoxychlorid]
concentration without sufficient antimicrobial activity [1]: 0.05%
synergistic effect in mixtures [1]: ++

CCCOC(=O)NCCCN(C)C [F1, Propamocarb]
concentration without sufficient antimicrobial activity [1]: 0.05%
synergistic effect in mixtures [1]: +

CO/C=C(/C(=O)OC)c1ccccc1Oc1cc(Oc2ccccc2C#N)ncn1 [F6, Azoxystrobin]
concentration without sufficient antimicrobial activity [1]: 0.07%
synergistic effect in mixtures [1]: +

OC(Cc1ccccc1Cl)(Cn1nc[nH]c1=S)C1(Cl)CC1 (centres unmarked) [F2, Prothioconazole]
concentration without sufficient antimicrobial activity [1]: 0.05%
synergistic effect in mixtures [1]: +

N#Cc1c(Cl)c(Cl)c(Cl)c(C#N)c1Cl [F5, Chlorothalonil]
concentration without sufficient antimicrobial activity [1]: 0.05%
synergistic effect in mixtures [1]: ++
antimicrobial activities against Candida parapsilosis [2]: do not show sufficient antimicrobial activities
synergistic effect against Candida parapsilosis [2]: show synergistic effects

Reference: patent US9980482B2, “Synergistic compositions with plant protection agents” (multiBIND biotec GmbH, priority 2013, dated 2018)
